Values of other authors, collected in patent US7138151B2, “Calcium-fortified acidic beverages” (Unilab Pharmatech, Ltd., priority 2002, dated 2006).

Conditions: initially clear metastable solution from citric acid and calcium base

SMILES: O=C([O-])CC(O)(CC(=O)[O-])C(=O)[O-].O=C([O-])CC(O)(CC(=O)[O-])C(=O)[O-].[Ca+2].[Ca+2].[Ca+2] [in-situ solubilized calcium citrate, calcium citrate]
- time at which calcium citrate starts to precipitate out of solution: ≤ 24 h
